Earlier results as cited in patent publication US12297406B2, “Method for preparing a composition comprising cetylated fatty acids” (ALESCO S.R.L., priority 2019, dated 2025).

Details: European Union food additive E319

In the case of `CC(C)(C)c1cc(O)ccc1O` [TBHQ, Tert-butyl-hydroquinone], the “acceptable daily intake (ADI)” value is listed as 0.7 mg/kg of body weight.
